{
  "source": "patent US5547971A",
  "about": "“Use of leflunomide for inhibiting interleukin 8” (priority 1993, dated 1996)",
  "key": {"IL-8": {"tested_on": "IL-8", "experiment": "IL-8 synthesis and liberation induced by lipopolysaccharide in isolated human blood mononuclear cells (IL-8 in the supernatant, sandwich enzyme immuno test)", "type": "cell-based", "conditions": "for activity at 50 µM / activity at 100 µM: Homo sapiens, control without substance set at 100%, 37° C., 1 h, lipopolysaccharide-induced, read-out: IL-8 in the supernatant % +/- standard deviation; for activity at 50 µM: concentration 0.05 mmol/l; for activity at 100 µM: concentration 0.1 mmol/l; for effect on the IL-8 level / effect on the synthesis and liberation of cytokines from human blood cells: in words; for effect on the IL-8 level: experiments in Tab. 1", "method": "10 ml of freshly prepared human citrate blood were carefully underlaid with 15 ml of Lymphoprep^(R) (Molter GmbH, Heidelberg) and then centrifuged at 400 ×g for 40 min. at 20° C. The cell fraction which was visible as a white ring at the phase boundary was removed with the aid of a syringe, diluted 1:1 (v/v) with PM-16 buffer (from Serva Feinbiochemica GmbH & Co. KG, Heidelberg) and then centrifuged, as above, for 10 min. […] Using a cell counter (type IT, from Coulter Diagnostics, Krefeld), the cell suspension, which is composed of about 90% lymphocytes and 10% monocytes, was adjusted to about 5 million cells/mi. Cell viability was monitored before and after the inhibition experiments using the known lactate dehydrogenase method.\nThe synthesis and liberation of cellular IL-8 was induced by adding a solution of 500 ng of lipopolysaccharide (Salmonella abortus equi, Sigma GmbH, Deisenhofen) in 0.01 ml of dimethyl sulfoxide/water (1:10, v/v) to 0.48 ml of the above-described cell fraction. At the same time, a solution of leflunomide or leflunomide metabolite in 0.01 ml of dimethyl sulfoxide (for the final concentration in each case, see Tab. 1) was added to the cell fraction and the mixture was left at 37° C. for 1h in a commercially available incubator. After cooling down to 0° C., the samples were centrifuged for 1 min. in a bench centrifuge and in each case 0.025 ml aliquots of the supernatant were examined for their […] content using a \"sandwich\" enzyme immuno test kit (from Biermann GmbH, Bad Nauheim) in accordance with the manufacturer's instructions. The control values were determined without the addition of leflunomide or its metabolites and set at 100%."}, "mononuclear cells": {"tested_on": "mononuclear cells", "experiment": "Metabolism of leflunomide in the mononuclear cell test sample (HPLC)", "type": "in vitro ADME, human", "conditions": "in words; under the experimental conditions employed"}, "[1]": {"experiment": "Metabolism of leflunomide in the mononuclear cell test sample (HPLC)", "type": "in vitro ADME, human", "conditions": "blood mononuclear cells; under the conditions employed; human mononuclear cell fraction; read-out: half life of metabolism of leflunomide to its metabolites (converted)"}},
  "data": [
    {"compound": "C/C(O)=C(\\C#N)C(=O)Nc1ccc(C(F)(F)F)cc1", "note": "[Leflunomide metabolite, N-(4-trifluoromethylphenyl)-2-cyano-3-hydroxycrotonamide]", "values": [
      {"measurement": "activity at 50 µM", "setting": "IL-8", "value": 97, "unit": "%"},
      {"measurement": "activity at 100 µM", "setting": "IL-8", "value": 99, "unit": "%"},
      {"measurement": "effect on the IL-8 level", "setting": "IL-8", "value": "practically no effect on the IL-8 level"},
      {"measurement": "effect on the synthesis and liberation of cytokines from human blood cells", "setting": "IL-8", "value": "does not exhibit this advantageous effect"}
    ]},
    {"compound": "Cc1oncc1C(=O)Nc1ccc(C(F)(F)F)cc1", "note": "[Leflunomide, N-(4-trifluoromethylphenyl)-5-methylisoxazole-4-carboxamide]", "values": [
      {"measurement": "activity at 50 µM", "setting": "IL-8", "value": 83, "unit": "%"},
      {"measurement": "activity at 100 µM", "setting": "IL-8", "value": "61 ± 11", "unit": "%"},
      {"measurement": "effect on the IL-8 level", "setting": "IL-8", "value": "IL-8 level is clearly lowered"},
      {"measurement": "effect on the synthesis and liberation of cytokines from human blood cells", "setting": "IL-8", "value": "strong inhibitory effect"},
      {"measurement": "metabolism of leflunomide", "setting": "mononuclear cells", "value": "no appreciable metabolism"},
      {"measurement": "half-life", "setting": "[1]", "value": "~10", "unit": "h"}
    ]}
  ]
}
